Here are results for 51 compounds from BindingDB's records for doi:10.1074/jbc.M113.503474 (The Ohio State University, 2013).

In the assay the target is Isoform Tau-F of Microtubule-associated protein tau (Human, UniProt P10636). Put plainly: Tau Protein Assay. The note with it: pH 7.4. On the procedure: The Tau content of fractions was determined by dot blot analysis using nitrocellulose membranes (0.2 μm porosity) as described previously [Cisek et al., Biophys. Chem., 170:25-33]. The membranes were blocked in 5% nonfat dry milk dissolved in blocking buffer (100 mM Tris-HCl, pH 7.4, and 150 mM NaCl) for 1 h and then incubated with primary antibody Tau5 at 1:5000 dilution for 2 h. Membranes were then washed three times with blocking buffer and incubated with horseradish peroxidase-linked secondary antibody for 2 h. After washing another three times with blocking buffer, membranes were imaged using the Enhanced Chemiluminescence Western blotting Analysis System (GE Healthcare, Buckinghamshire, UK) recorded on an Omega 12iC Molecular Imaging System and quantified using Ultra-Quant software (UltraLum, Claremont, CA, USA).

Values joined by “and” are separate entries in the source; they are usually repeats but may differ in a detail not shown here. Equal entries are not always repeated.

Chain of Isoform Tau-F of Microtubule-associated protein tau (P10636 as listed by the source): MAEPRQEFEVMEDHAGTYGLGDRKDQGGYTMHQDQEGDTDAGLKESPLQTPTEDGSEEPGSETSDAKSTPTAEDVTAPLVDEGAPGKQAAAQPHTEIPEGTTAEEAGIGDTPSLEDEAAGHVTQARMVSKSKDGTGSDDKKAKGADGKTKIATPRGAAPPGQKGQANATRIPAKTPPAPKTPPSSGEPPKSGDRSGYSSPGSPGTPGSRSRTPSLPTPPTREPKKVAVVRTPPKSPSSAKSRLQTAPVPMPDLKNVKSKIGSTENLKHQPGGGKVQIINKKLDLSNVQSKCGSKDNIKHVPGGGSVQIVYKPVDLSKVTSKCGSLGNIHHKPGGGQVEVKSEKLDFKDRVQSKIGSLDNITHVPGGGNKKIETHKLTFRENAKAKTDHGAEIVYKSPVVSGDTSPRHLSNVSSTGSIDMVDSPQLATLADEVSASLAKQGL

On to `O=C(O)CCCCN1C(=O)/C(=C/c2ccc(-c3ccc(-c4ccccc4)cc3)o2)SC1=S` [Rhodanines, 25A], for which the IC50 was determined as 240 nM. As for `O=C1/C(=C/c2cccc(-c3ccc(-c4ccccc4)cc3)c2)SC(=S)N1CCc1c[nH]cn1` [Rhodanines, 57B], the IC50 was found to be 9380 nM.

`C1=C2\Sc3ccccc3N2CCCC[n+]2c(sc3ccccc32)/C=C/C=C2\Sc3ccccc3N2CCCC[n+]2c(sc3ccccc32)/C=C/1` [Cyanines, 9]: the IC50 was 120 nM.

In turn, `O=C(O)CCN1C(=O)/C(=C/c2ccc(-c3ccccc3Cl)o2)SC1=S` [Rhodanines, 31A] came in with an IC50 of 650 nM. Against the preceding compound, the IC50 is about 5.4-fold higher.

`CNc1ccc2nc3ccc(=[N+](C)C)cc-3sc2c1` [Azure B (11)] showed an IC50 of 1280 nM. For `O=C(O)CC(C(=O)O)N1C(=O)/C(=C/c2ccc(-c3cccc(Cl)c3)o2)SC1=S` (stereo unspecified) [Rhodanines, 27A], the IC50 was 420 nM. In the case of `O=C1/C(=C/c2ccc(-c3ccc(-n4cccc4)cc3)o2)SC(=S)N1Cc1nc2ccccc2[nH]1` [Rhodanines, 29A], the midpoint of inhibition, the IC50, lay at 540 nM. To `O=C1/C(=C/c2ccc(-c3cccc(Cl)c3)o2)SC(=S)N1Cc1nc2ccccc2[nH]1` [Rhodanines, 32A] belongs 670 nM. Under `O=C(O)c1ccc(-c2ccc(-c3ccc(/C=C4\SC(=S)N(CCc5c[nH]cn5)C4=O)o3)cc2)o1` [Rhodanines, 34A] stands 750 nM; under `O=C(O)CCCN1C(=O)/C(=C/c2ccc(-c3ccc(-c4ccccc4)cc3)o2)SC1=S` [Rhodanines, 37A], 940 nM.

On to `CC(C(=O)O)N1C(=O)/C(=C/c2ccc(-c3cccc(Cl)c3)o2)SC1=S` (stereo unspecified) [Rhodanines, 42A], for which the IC50 was 1410 nM and 4360 nM. Under `O=C(O)CCCCN1C(=O)/C(=C/c2ccc(-c3ccc(-c4ccc(C(=O)O)o4)cc3)o2)SC1=S` [Rhodanines, 26A] stands 260 nM; under `O=C(O)CCCN1C(=O)/C(=C/c2cccc(-c3ccc(-c4ccccc4)cc3)n2)SC1=S` [Rhodanines, 51B], 5030 nM; under `O=C1/C(=C/c2ccc(-c3ccc(-n4cccc4)cc3)o2)SC(=S)N1CCc1c[nH]cn1` [Rhodanines, 43A], 1850 nM. Turning to `N=c1ccc2nc3ccc(N)cc3sc-2c1`, the IC50 is above 10000 nM.

`O=C(O)Cc1ccc(CN2C(=O)/C(=C/c3ccc(-c4ccc(-c5ccc(C(=O)O)o5)cc4)o3)SC2=S)cc1` [Rhodanines, 30A]: half-maximal inhibition (IC50) required 580 nM.

`CN(C)c1ccc(C(=C2C=CC(=[N+](C)C)C=C2)c2ccccc2)cc1` [Malachite green (16)] registered an IC50 of 520 nM. Under `O=C(O)CCN1C(=O)/C(=C/c2ccc(-c3cccc(Cl)c3)s2)SC1=S` [Rhodanines, 38A] stands 970 nM; under `CCN1/C(=C/C(C)=C/c2sc3ccccc3[n+]2CC)Sc2ccccc21` [SMR000354813], 280 nM. `O=C(O)CN1C(=O)/C(=C/c2ccc(-c3cccc(Cl)c3)o2)NC1=S` [Rhodanines, 53A] showed an IC50 of 6100 nM. This IC50 is about 22-fold higher than that of the compound before. `O=C(O)CCCCN1C(=O)/C(=C/c2cccc(-c3ccc(-c4ccccc4)cc3)n2)SC1=S` [Rhodanines, 52B] had an IC50 of 5030 nM.

`O=C(O)CCCN1C(=O)/C(=C/c2ccc(-c3cccc(Cl)c3)o2)SC1=S` [Rhodanines, 40A] displayed an IC50 of 1220 nM.

`O=C(O)CCN1C(=O)/C(=C/c2ccc(-c3ccc(-n4cccc4)cc3)o2)SC1=S` [Rhodanines, 24A]: the half-inhibitory concentration (IC50) is 240 nM.

As to `O=C(O)Cc1ccc(CN2C(=O)/C(=C/c3cccc(-c4ccc(-c5ccccc5)cc4)n3)SC2=S)cc1` [Rhodanines, 62B], the IC50 was 35500 nM.

`O=C1/C(=C/c2ccc(-c3ccc(-c4ccccc4)cc3)o2)SC(=S)N1Cc1nc2ccccc2[nH]1` [Rhodanines, 41A] returned an IC50 of 1400 nM. Under `C/N=c1\ccc2nc3ccc(N)cc3sc-2c1` [Azure C (13)] stands above 10000 nM. Compound `O=C(O)CCCCN1C(=O)/C(=C/c2ccc(-c3ccc(-n4cccc4)cc3)o2)SC1=S` [Rhodanines, 22A] yielded an IC50 of 210 nM. To `O=C(O)CCN1C(=O)C(=CC2CCC(c3ccc(-c4ccccc4)cc3)C2)SC1=S` (stereo unspecified) [Rhodanines, 55A] belongs 7920 nM. To `O=C(O)Cc1ccc(CN2C(=O)/C(=C/c3ccc(-c4ccc(-n5cccc5)cc4)o3)SC2=S)cc1` [Rhodanines, 35A] belongs 780 nM. To `O=C(O)Cc1ccc(CN2C(=O)/C(=C/c3cccc(-c4ccc(-c5ccccc5)cc4)c3)SC2=S)cc1` [Rhodanines, 64B] belongs 146000 nM; to `C[N+](C)=c1ccc2nc3ccc(N)cc3sc-2c1` [AZURE A], above 10000 nM; to `O=C1/C(=C/c2ccc(-c3ccc(-c4ccccc4)cc3)cc2)SC(=S)N1CCc1c[nH]cn1` [Rhodanines, 58B], 12400 nM. As for `O=C(O)CN1C(=O)/C(=C/c2ccc(-c3cccc(Cl)c3)o2)SC1=S` [Rhodanines, 36A], the IC50 is 820 nM. This IC50 lies about 15-fold lower than the previous one.

In turn, `CN(C)c1ccc(C(=C2C=CC(=[N+](C)C)C=C2)c2ccc(N(C)C)cc2)cc1` [CHEBI:77181] returned an IC50 of 490 nM. Under `O=C1/C(=C/c2ccc(-c3ccc(-c4ccccc4)cc3)o2)SC(=S)N1CCc1c[nH]cn1` [Rhodanines, 54A] stands 7700 nM; under `O=C(O)CCCN1C(=O)/C(=C/c2ccc(-c3ccc(-n4cccc4)cc3)o2)SC1=S` [Rhodanines, 23A], 230 nM; under `O=C1/C(=C/c2cccc(-c3ccc(-c4ccccc4)cc3)n2)SC(=S)N1CCc1c[nH]cn1` [Rhodanines, 63B], 117000 nM.

Compound `O=C(O)Cc1ccc(CN2C(=O)/C(=C/c3ccc(-c4ccc(-c5ccccc5)cc4)cc3)SC2=S)cc1` [Rhodanines, 59B] had an IC50 of 14800 nM. Under `O=C(O)CCN1C(=O)/C(=C/c2ccc(-c3ccc(-c4ccccc4)cc3)cc2)SC1=S` [Rhodanines, 60B] stands 19600 nM; under `O=C(O)CCN1C(=O)/C(=C/c2ccc(-c3ccc(-c4ccc(C(=O)O)o4)cc3)o2)SC1=S` [Rhodanines, 21A], 170 nM; under `CN(C)c1ccc(N=C2C=CC(=[N+](C)C)C=C2)cc1` [Bindschedler's green (19)], 1090 nM. Under `O=C(O)CCN1C(=O)/C(=C/c2ccc(-c3ccc(-c4ccccc4)cc3)o2)SC1=S` [Rhodanines, 20A] stands 170 nM. The compound `N=C1C=CC(=C(c2ccc(N)cc2)c2ccc(N)cc2)C=C1` [Fuschin (17)] displayed an IC50 above 10000 nM. As to `CCC(/C=C1\Sc2ccc(OC)cc2N1CCO)=C\c1sc2ccc(OC)cc2[n+]1CCO`, the IC50 worked out at 290 nM. In turn, `O=C1C=CC(=C(c2ccc(O)cc2)c2ccc(O)cc2)C=C1` [Corallin] had an IC50 above 10000 nM. Under `O=C1/C(=C/c2ccc(-c3cccc(Cl)c3)o2)SC(=S)N1CCc1c[nH]cn1` [Rhodanines, 39A] stands 1090 nM. In turn, `CCCN1/C(=C/C=C/C2=[N+](CCC)c3ccccc3C2(C)C)C(C)(C)c2ccccc21` [Cyanines, 6] came in with a half-inhibitory concentration (IC50) of 2570 nM. To `O=C(O)CCN1C(=O)/C(=C/c2ccc(-c3cccc(Cl)c3)o2)SC1=S` [Rhodanines, 28A] belongs 470 nM. Under `O=C(O)Cc1ccc(CN2C(=O)/C(=C/c3ccc(-c4cccc(Cl)c4)o3)SC2=S)cc1` [Rhodanines, 44A] stands 1970 nM; under `O=C(O)CN1C(=O)/C(=C/c2ccc(-c3cccc(Cl)c3)o2)OC1=S` [Rhodanines, 46A], 3100 nM; under `O=C(O)Cc1ccc(CN2C(=O)/C(=C/c3ccc(-c4ccc(-c5ccccc5)cc4)o3)SC2=S)cc1` [Rhodanines, 33A], 730 nM.

Broadly, the IC50 is the concentration needed to halve the response being measured. High values mean weaker potency in that assay, low ones greater potency in that assay.
